Our source for the IC50 values is ChEMBL document CHEMBL5728699, “Macrocyclic compounds for treatment of medical disorders” (2021).

pIC50: −log10 of the molar value.

The target in the assay is Complement factor D (Homo sapiens, UniProt P00746). Put plainly: Human Factor D Assay: Human Factor D (purified from human serum, Complement Technology, Inc.) at 80 nM final concentration is incubated with test compound at various concentrations for 5 min at room temperature in 50 mM Tris, 1M NaCl, pH 7.5. A synthetic substrate Z-L-Lys-SBzl and DTNB (Ellman's reagent) are added to final concentrations of 100 µM each. Absorbance at 405 nm (A405) is recorded at 30 second intervals for 30 minutes using a microplate spectrophotometer. IC50 values are calculated by nonlinear regression of Complement Factor D reaction rates as a function of test compound concentration.
Sequence of Complement factor D (P00746 whole entry): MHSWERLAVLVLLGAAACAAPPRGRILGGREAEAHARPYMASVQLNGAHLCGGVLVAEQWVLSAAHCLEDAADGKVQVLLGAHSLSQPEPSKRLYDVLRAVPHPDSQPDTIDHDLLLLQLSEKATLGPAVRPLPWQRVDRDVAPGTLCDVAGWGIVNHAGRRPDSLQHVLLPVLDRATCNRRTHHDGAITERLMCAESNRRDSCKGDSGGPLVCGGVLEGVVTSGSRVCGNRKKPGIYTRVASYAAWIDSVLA

By pIC50 is commonly meant −log10 of the IC50, conventionally taken in molar units.

As for `CC(=O)c1nn2c3c(cc(-c4cnc(C)nc4)cc13)CC/C=C\CCCC(=O)NC[C@@]13C[C@@H](C(=O)Nc4nc(Br)ccc4C)N(C(=O)C2)[C@@H]1C3`, the pIC50 is > 6.00. Then `CC(=O)c1nn(CC(=O)N2[C@H]3C[C@@]4(/C=C\CCCCN(C)C(=O)Cc5ccc(Br)nc5NC3=O)C[C@@H]24)c2ccc(-c3cnc(C)nc3)cc12`, with > 6.00. For the compound `CC(=O)c1nn2c3c(cc(-c4cnc(C)nc4)cc13)CCCCCC/C=C\c1cn(nn1)C[C@@]13C[C@@H](C(=O)Nc4nc(Br)ccc4C)N(C(=O)C2)[C@@H]1C3`, the pIC50 was > 6.00.

For the compound `CC(=O)c1nn(CC(=O)N2[C@H]3C[C@]4(C[C@@H]24)CN2CC(CCCOCc4ccc(Br)nc4NC3=O)C2)c2c(C)cc(-c3cnc(C)nc3)cc12`, the pIC50 was > 6.00. On to `CC(=O)c1nn2c3c(cc(-c4cnc(C)nc4)cc13)C/C=C\CCCC(=O)NC[C@@]13C[C@@H](C(=O)Nc4nc(Br)ccc4C)N(C(=O)C2)[C@@H]1C3`, for which the pIC50 was > 6.00. Then `CC(=O)c1nn(CC(=O)N2[C@H]3C[C@]4(C[C@@H]24)CN(C)CC(O)C(O)COCc2ccc(Br)nc2NC3=O)c2cnc(-c3cnc(C)nc3)cc12` (stereo not given in full), with > 6.00; and `CC(=O)c1nn(CC(=O)N2[C@H]3C[C@]4(C[C@@H]24)CN(C)CCCC/C=C\Cc2ccc(Br)nc2NC3=O)c2c(CF)cc(-c3cnc(C)nc3)cc12`, with > 6.00; and `CC(=O)N[C@H]1C/C=C\COCc2ccc(Br)nc2NC(=O)[C@@H]2C[C@@]3(CNC1=O)C[C@H]3N2C(=O)Cn1nc(C(C)=O)c2cc(-c3cnc(C)nc3)ccc21`, with > 6.00.

As to `CC(=O)c1nn2c3c(cc(-c4cnc(C)nc4)cc13)C/C=C\CCCC(=O)NC[C@@]13C[C@@H](C(=O)Nc4nc(C(F)(F)F)ccc4C)N(C(=O)C2)[C@@H]1C3`, the pIC50 is > 6.00. Then `C=C1COCc2ccc(Br)nc2NC(=O)[C@@H]2C[C@]3(C[C@H]3N2C(=O)Cn2nc(C(C)=O)c3cc(-c4cnc(C)nc4)ncc32)Cn2cc1cn2`, with > 6.00.
